PubChem BioAssay AID248 (DTP/NCI, 2004)
“And” between values parts separate entries of the source, which are not always exact repeats. Identical values can stand only once. Inconclusive results and toxic doses are left out. No stated cut-off is given here; in the data, active means T/C of 150% or more; inactive means T/C below 125%.

Tested on: L1210 leukemia ip in BDF1 mice, survival T/C
Assay: NCI In Vivo Anticancer Drug Screen. Data for tumor model L1210 Leukemia (intraperitoneal) in B6D2F1 (BDF1) mice
Details: higher = longer survival
In short: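 Tumor cells were implanted, animals were treated, and survival was followed. The result divides the treated measurement by the vehicle-control measurement.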

Measured: T/C

O=NN(CCCl)C(=O)NCCCl
inactive: endpoint: mean survival time, dose: 0.09 mg/kg/injection, schedule: Q01DX009 (ip), vehicle: saline 96 % of control | endpoint: mean survival time, dose: 0.09 mg/kg/injection, schedule: Q01DX009 (oral), vehicle: saline 100 % of control | endpoint: mean survival time, dose: 0.09 mg/kg/injection, schedule: Q## X024 (oral), vehicle: saline 102 % of control | endpoint: mean survival time, dose: 0.18 mg/kg/injection, schedule: Q01DX005 (ip), vehicle: saline 94 % of control | endpoint: mean survival time, dose: 0.18 mg/kg/injection, schedule: Q01DX009 (ip), vehicle: saline 101 % of control | endpoint: mean survival time, dose: 0.18 mg/kg/injection, schedule: Q01DX009 (oral), vehicle: saline 102 % of control | endpoint: mean survival time, dose: 0.18 mg/kg/injection, schedule: Q## X008 (ip), vehicle: saline 102 % of control | endpoint: mean survival time, dose: 0.18 mg/kg/injection, schedule: Q## X024 (oral), vehicle: saline 98 % of control | endpoint: mean survival time, dose: 0.32 mg/kg/injection, schedule: Q01DX001 (ip), vehicle: other 98 % of control | endpoint: mean survival time, dose: 0.36 mg/kg/injection, schedule: Q01DX Z (ip), vehicle: carboxymethylcellulose (CMC) 104 % of control | endpoint: mean survival time, dose: 0.37 mg/kg/injection, schedule: Q01DX001 (ip), vehicle: saline 104 % of control | endpoint: mean survival time, dose: 0.37 mg/kg/injection, schedule: Q01DX005 (ip), vehicle: saline 103 % of control | endpoint: mean survival time, dose: 0.37 mg/kg/injection, schedule: Q01DX005 (oral), vehicle: saline 93 % of control | endpoint: mean survival time, dose: 0.37 mg/kg/injection, schedule: Q01DX009 (ip), vehicle: saline 101 % of control | endpoint: mean survival time, dose: 0.37 mg/kg/injection, schedule: Q01DX009 (oral), vehicle: saline 97 % of control | endpoint: mean survival time, dose: 0.37 mg/kg/injection, schedule: Q01DX009 (sc), vehicle: saline 97 % of control | endpoint: mean survival time, dose: 0.37 mg/kg/injection, schedule: Q01DX015 (ip), vehicle: saline 115 % of control | endpoint: mean survival time, dose: 0.37 mg/kg/injection, schedule: Q## X003 (ip), vehicle: saline 107 % of control | endpoint: mean survival time, dose: 0.37 mg/kg/injection, schedule: Q## X008 (ip), vehicle: saline 109 % of control | endpoint: mean survival time, dose: 0.37 mg/kg/injection, schedule: Q## X024 (ip), vehicle: saline 110 % of control | endpoint: mean survival time, dose: 0.37 mg/kg/injection, schedule: Q## X024 (oral), vehicle: saline 100 % of control | endpoint: mean survival time, dose: 0.45 mg/kg/injection, schedule: Q01DX009 (ip), vehicle: saline + alcohol 99 % of control and 107 % of control | endpoint: mean survival time, dose: 0.63 mg/kg/injection, schedule: Q01DX001 (ip), vehicle: other 107 % of control | endpoint: mean survival time, dose: 0.73 mg/kg/injection, schedule: Q01DX Z (ip), vehicle: carboxymethylcellulose (CMC) 107 % of control | endpoint: mean survival time, dose: 0.75 mg/kg/injection, schedule: Q01DX001 (ip), vehicle: saline 105 % of control | endpoint: mean survival time, dose: 0.75 mg/kg/injection, schedule: Q01DX001 (sc), vehicle: saline 105 % of control | endpoint: mean survival time, dose: 0.75 mg/kg/injection, schedule: Q01DX005 (ip), vehicle: saline 108 % of control | endpoint: mean survival time, dose: 0.75 mg/kg/injection, schedule: Q01DX005 (oral), vehicle: saline 101 % of control | endpoint: mean survival time, dose: 0.75 mg/kg/injection, schedule: Q01DX009 (oral), vehicle: saline 116 % of control | endpoint: mean survival time, dose: 0.75 mg/kg/injection, schedule: Q01DX009 (sc), vehicle: saline 104 % of control | endpoint: mean survival time, dose: 0.75 mg/kg/injection, schedule: Q## X003 (ip), vehicle: saline 108 % of control | endpoint: mean survival time, dose: 0.75 mg/kg/injection, schedule: Q## X008 (ip), vehicle: saline 114 % of control | endpoint: mean survival time, dose: 0.75 mg/kg/injection, schedule: Q## X024 (oral), vehicle: saline 113 % of control | endpoint: mean survival time, dose: 1.0 mg/kg/injection, schedule: Q01DX Z (oral), vehicle: saline 117 % of control | endpoint: mean survival time, dose: 1.0 mg/kg/injection, schedule: Q04DX002 (ip), vehicle: saline + alcohol 105 % of control and 107 % of control | endpoint: mean survival time, dose: 1.0 mg/kg/injection, schedule: Q04DX004 (ip), vehicle: saline 106 % of control | endpoint: mean survival time, dose: 1.25 mg/kg/injection, schedule: Q01DX001 (ip), vehicle: other 101 % of control | endpoint: mean survival time, dose: 1.5 mg/kg/injection, schedule: Q01DX001 (ip), vehicle: saline 107 % of control | endpoint: mean survival time, dose: 1.5 mg/kg/injection, schedule: Q01DX001 (sc), vehicle: saline 107 % of control | endpoint: mean survival time, dose: 1.5 mg/kg/injection, schedule: Q01DX005 (oral), vehicle: saline 103 % of control | endpoint: mean survival time, dose: 1.5 mg/kg/injection, schedule: Q## X003 (ip), vehicle: saline 112 % of control | endpoint: mean survival time, dose: 1.75 mg/kg/injection, schedule: Q07DX Z (oral), vehicle: saline 105 % of control | endpoint: mean survival time, dose: 2.0 mg/kg/injection, schedule: Q01DX001 (ip), vehicle: Klucel (hydroxypropylcellulose) (HPC) 110 % of control | endpoint: mean survival time, dose: 2.0 mg/kg/injection, schedule: Q01DX001 (ip), vehicle: distilled water + alcohol 107 % of control | endpoint: mean survival time, dose: 2.0 mg/kg/injection, schedule: Q01DX001 (ip), vehicle: other 107 % of control and 111 % of control | endpoint: mean survival time, dose: 2.0 mg/kg/injection, schedule: Q01DX006 (iv), vehicle: saline 115 % of control | endpoint: mean survival time, dose: 2.0 mg/kg/injection, schedule: Q04DX002 (ip), vehicle: saline + alcohol 114 % of control | endpoint: mean survival time, dose: 2.0 mg/kg/injection, schedule: Q04DX004 (ip), vehicle: saline 118 % of control | endpoint: mean survival time, dose: 2.5 mg/kg/injection, schedule: Q01DX001 (ip), vehicle: other 114 % of control | endpoint: mean survival time, dose: 3.0 mg/kg/injection, schedule: Q01DX001 (ip), vehicle: saline 112 % of control | endpoint: mean survival time, dose: 3.0 mg/kg/injection, schedule: Q03DX Z (oral), vehicle: saline 117 % of control | endpoint: mean survival time, dose: 3.0 mg/kg/injection, schedule: Q## X003 (oral), vehicle: saline 112 % of control | endpoint: mean survival time, dose: 3.12 mg/kg/injection, schedule: Q01DX001 (ip), vehicle: saline 101 % of control and 106 % of control | endpoint: mean survival time, dose: 3.5 mg/kg/injection, schedule: Q07DX Z (oral), vehicle: saline 111 % of control | endpoint: mean survival time, dose: 5.0 mg/kg/injection, schedule: Q07DX003 (ip), vehicle: saline 104 % of control | endpoint: mean survival time, dose: 6.25 mg/kg/injection, schedule: Q01DX001 (ip), vehicle: saline 108 % of control and 110 % of control | endpoint: mean survival time, dose: 6.75 mg/kg/injection, schedule: Q03HX032 (ip), vehicle: saline + alcohol 103 % of control | endpoint: mean survival time, dose: 6.75 mg/kg/injection, schedule: Q## X032 (ip), vehicle: saline + alcohol 103 % of control | endpoint: mean survival time, dose: 12.0 mg/kg/injection, schedule: Q## X Z (ip), vehicle: saline 103 % of control | endpoint: mean survival time, dose: 12.5 mg/kg/injection, schedule: Q01DX001 (ip), vehicle: saline 118 % of control | endpoint: mean survival time, dose: 16.0 mg/kg/injection, schedule: Q01DX009 (ip), vehicle: carboxymethylcellulose (CMC) 102 % of control | endpoint: mean survival time, dose: 18.0 mg/kg/injection, schedule: Q## X006 (ip), vehicle: saline 116 % of control | endpoint: mean survival time, dose: 24.0 mg/kg/injection, schedule: Q01DX005 (ip), vehicle: saline 106 % of control | endpoint: mean survival time, dose: 24.0 mg/kg/injection, schedule: Q01DX005 (oral), vehicle: saline 119 % of control | endpoint: mean survival time, dose: 24.0 mg/kg/injection, schedule: Q01DX006 (ip), vehicle: saline 109 % of control | endpoint: mean survival time, dose: 24.0 mg/kg/injection, schedule: Q01DX009 (ip), vehicle: saline 117 % of control | endpoint: mean survival time, dose: 24.0 mg/kg/injection, schedule: Q01DX009 (oral), vehicle: saline 116 % of control | endpoint: mean survival time, dose: 24.0 mg/kg/injection, schedule: Q01DX009 (sc), vehicle: saline 117 % of control | endpoint: mean survival time, dose: 36.0 mg/kg/injection, schedule: Q01DX006 (ip), vehicle: saline 98 % of control | endpoint: mean survival time, dose: 40.0 mg/kg/injection, schedule: Q04DX004 (ip), vehicle: saline 94 % of control | endpoint: mean survival time, dose: 48.0 mg/kg/injection, schedule: Q01DX001 (ip), vehicle: Klucel (hydroxypropylcellulose) (HPC) 116 % of control | endpoint: mean survival time, dose: 48.0 mg/kg/injection, schedule: Q01DX006 (ip), vehicle: saline 94 % of control | endpoint: mean survival time, dose: 48.0 mg/kg/injection, schedule: Q## X024 (ip), vehicle: saline 119 % of control | endpoint: mean survival time, dose: 62.0 mg/kg/injection, schedule: Q04DX002 (ip), vehicle: saline + alcohol 107 % of control and 111 % of control | endpoint: mean survival time, dose: 64.0 mg/kg/injection, schedule: Q01DX Z (oral), vehicle: saline 94 % of control | endpoint: mean survival time, dose: 79.0 mg/kg/injection, schedule: Q01DX001 (oral), vehicle: saline 118 % of control | endpoint: mean survival time, dose: 88.0 mg/kg/injection, schedule: Q01DX001 (ip), vehicle: other 116 % of control | endpoint: mean survival time, dose: 96.0 mg/kg/injection, schedule: Q03DX Z (oral), vehicle: saline 108 % of control | endpoint: mean survival time, dose: 112.0 mg/kg/injection, schedule: Q07DX Z (oral), vehicle: saline 106 % of control | endpoint: mean survival time, dose: 128.0 mg/kg/injection, schedule: Q01DX001 (ip), vehicle: Klucel (hydroxypropylcellulose) (HPC) 106 % of control | endpoint: mean survival time, dose: 128.0 mg/kg/injection, schedule: Q01DX001 (ip), vehicle: other 98 % of control | endpoint: mean survival time, dose: 256.0 mg/kg/injection, schedule: Q01DX001 (ip), vehicle: Klucel (hydroxypropylcellulose) (HPC) 96 % of control | endpoint: mean survival time, dose: 256.0 mg/kg/injection, schedule: Q01DX001 (ip), vehicle: other 104 % of control | endpoint: median survival time, dose: 0.75 mg/kg/injection, schedule: Q01DX009 (ip), vehicle: saline 105 % of control | endpoint: median survival time, dose: 1.25 mg/kg/injection, schedule: Q01DX009 (ip), vehicle: saline 100 % of control and 112 % of control | endpoint: median survival time, dose: 24.0 mg/kg/injection, schedule: Q01DX009 (ip), vehicle: saline 95 % of control | endpoint: median survival time, dose: 30.0 mg/kg/injection, schedule: Q01DX005 (ip), vehicle: saline + alcohol 94 % of control and 102 % of control | endpoint: median survival time, dose: 30.0 mg/kg/injection, schedule: Q01DX009 (ip), vehicle: saline + alcohol 93 % of control
